Laboratory results: patent EP2149552A1, “5,6 substituted benzamide derivatives as modulators of EP2 receptors” (Bayer Schering Pharma Aktiengesellschaft, priority 2008, dated 2010)

Assays:
[1] = tested on: Kumulus-Eizell Komplexe; assay: cumulus expansion test in vitro; type: cell-based, Mäusen; conditions: competing with the natural agonist PGE2
Source text: In immaturen weiblichen Mäusen (Stamm : CD1 (ICR) von Charles River) wurde in einem Alter von 14 - 18 Tagen die Follikulogenese durch eine einmalige Gabe (intraperitoneal) von 10 I.E. PMSG (Pregnant Mare Serum Gonadotropine; Sigma G-4877, Lot 68H0909) induziert. 47 - 50 Stunden nach der Injektion wurden die Ovarien entnommen und die Kumulus-Eizell Komplexe entnommen. Der Kumulus Komplex ist in diesem Stadium noch nicht expandiert.
Die Kumulus-Eizell Komplexe wurden nun für 20-24 Stunden mit Prostaglandin E2 (PGE2) (0,3 µM), Vehikel Kontrolle (Ethanol) oder Testsubstanzen inkubiert. Medium: alpha- MEM Medium mit 0,1 mM IBMX, Pyruvate (0,23 mM) Glutamine (2 mM), Pen/Strep 100 IU/ml Pen. und 100 µg/ml Strep.) und HSA (8 mg/ml). Danach wurde die Kumulus Expansion durch die Einteilung in vier Stadien (nach Vanderhyden et al. Dev Biol. 1990 Aug;140(2):307-317) festgestellt. Tabelle 1: Beispiel für die biologische Wirksamkeit der erfindungsgemäßen Verbindungen (gemessen mittels cAMP Antagonismustest): […]

[2] = biological target: T1, EP2-Subtyp des humanen PGE2-Rezeptors (Homo sapiens, UniProt P43116); assay: cAMP antagonism test (HTRF cAMP detection, PGE2-stimulated cells); type: cell-based; conditions: cAMP Antagonismustest, in presence of agonist PGE2; read-out: Antagonismus [IC50
T1 construct: host or cells: cells in a culture plate
T1 sequence (P43116 whole entry): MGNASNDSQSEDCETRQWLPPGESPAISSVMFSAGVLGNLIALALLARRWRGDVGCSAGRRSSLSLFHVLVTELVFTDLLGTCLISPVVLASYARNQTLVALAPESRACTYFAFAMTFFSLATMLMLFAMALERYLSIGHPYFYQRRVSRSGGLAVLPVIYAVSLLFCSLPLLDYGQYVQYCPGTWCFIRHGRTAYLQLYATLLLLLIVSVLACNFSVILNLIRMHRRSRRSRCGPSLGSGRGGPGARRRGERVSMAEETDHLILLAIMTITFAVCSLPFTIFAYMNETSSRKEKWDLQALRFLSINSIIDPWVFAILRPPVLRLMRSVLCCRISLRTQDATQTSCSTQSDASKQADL
Source text: Die Bindung von PGE2 an den EP2-Subtyp des humanen PGE2-Rezeptors induziert die Aktivierung membranständiger Adenylatzyklasen und führt zur Bildung von cAMP. In Gegenwart des Phosphodiesteraseinhibitors IBMX wird das durch diese Stimulation akkumulierte und mittels Zell-Lyse freigesetzte cAMP in einem kompetitiven Nachweisverfahren eingesetzt. In diesem Test konkurriert das cAMP im Lysat mit cAMP-XL665 um die Bindung eines Eu-Kryptat markierten Anti-cAMP Antikörpers.
Dabei entsteht in Abwesenheit von zellulärem cAMP ein maximales Signal, welches auf der Kopplung dieses Antikörpers an das cAMP-XL665 Molekül beruht. Dadurch entsteht nach Anregung bei 337 nm ein auf FRET (fluorescence resonance energy transfer) basierendes, langanhaltendes Emissionssignal bei 665 nm (und bei […]). Beide Signale werden in einem geeigneten Messgerät zeitlich versetzt, d.h. nach Abklingen der Hintergrundsfluoreszenz gemessen. Jegliche Erhöhung des durch Prostglandin-E2-Gabe bedingten niedrigen FRET-Signals (gemessen als Well-Ratio-Veränderung = Emission665nm/Emission620nm * 10000) zeigt die Wirkung von Antagonisten.
Die in einer Testplatte und 30 % DMSO vorgelegten Substanzlösungen (0.75 µl) wurden in 16 µl einer KRSB+IBMX-Stimulationslösung gelöst (1 X Krebs-Ringer Bicarbonate Buffer; Sigma-Aldrich # K-4002; inklusive 750 µM 3-Isobutyl-1-methylxanthine Sigma-Aldrich # I-7018), anschließend wurden 15 µl davon in eine medienfreie Zellkulturplatte überführt, die kurz zuvor mit KRSB gewaschen worden war.
Nach einer 30-minütigen Vorinkubation bei Raumtemperatur (RT) wurden 5 µl einer 4xPGE2 Lösung (11 nM) zugegeben und in Gegenwart des Agonisten für weitere 60 min bei RT inkubiert (Volumen: ∼ 20 µl), bevor die Reaktion anschließend durch Zugabe von 5 µl Lysispuffer gestoppt und für weitere 20 min bei RT inkubiert wurde (Volumen: ∼ 25 µl). Das Zell-Lysat wurde anschließend in eine Messplatte überführt und entsprechend den Herstellerangaben (cyclic AMP kit Cisbio International # 62AMPPEC) gemessen.

[3] = biological target: T1, EP2-Subtyp des humanen PGE2-Rezeptors; assay: cellular cAMP agonism test (without PGE2); type: cell-based

| IC50 [2] | SMILES | further results |
| --- | --- | --- |
| – | CC(C)Oc1ccc2c(=O)c3cc(C(=O)O)ccc3oc2c1 [AH 6809, reference compound] | Unterdrückung der Kumulus Expansion ([1]; 100 - 200 µM): ca. 30% |
| 200 nM | Cc1[nH]c2c(F)c(Cl)ccc2c1CCNC(=O)c1cc2cc(F)ccc2[nH]1 [Beispiel 6, 5-Fluor-1H-indol-2-carbonsäure [2-(6-chlor-7-fluor-2-methyl-1H-indol-3-yl)-ethyl]-amid] | – |
| 71 nM | Cc1[nH]c2c(F)c(F)ccc2c1CCNC(=O)c1cc2cc(Cl)ccc2[nH]1 [Beispiel 5, 5-Chlor-1H-indol-2-carbonsäure [2-(6,7-difluor-2-methyl-1H-indol-3-yl)-ethyl]-amid] | – |
| 700 nM | COc1ccc(C(=O)NCCc2c(C)[nH]c3c(F)cc(F)cc23)cc1OC [Beispiel 3, N-[2-(5,7-Difluor-2-methyl-1H-indol-3-yl)-ethyl]-3,4-dimethoxy-benzamid] | – |
| 1800 nM | COc1ccc(C(=O)NCCc2c(C)[nH]c3c(F)cc(Br)c(C)c23)cc1OC [Beispiel 8, N-[2-(5-Brom-7-fluor-2,4-dimethyl-1H-indol-3-yl)-ethyl]-3,4-dimethoxy-benzamid] | – |

| SMILES | IC50 [2] | further results |
| --- | --- | --- |
| Cc1[nH]c2c(F)cc(Br)cc2c1CCNC(=O)c1cc2cc(F)ccc2[nH]1 [Beispiel 10, 5-Fluor-1H-indol-2-carbonsäure [2-(5-brom-7-fluor-2-methyl-1H-indol-3-yl)-ethyl]-amid] | 82 nM | Unterdrückung der Kumulus Expansion ([1]; 5 µM): ca. 75%; Wirkung im zellulären Agonismustest [3]: keine Inhibition |
